Results: ChEMBL document CHEMBL4622855, “Secondary metabolites from Isodon ternifolius (D. Don) Kudo and their anticancer activity as DNA topoisomerase IB and Tyrosyl-DNA phosphodiesterase 1 inhibitors” (Bioorg Med Chem, 2020)
Active and inactive are the calls of the source. No cut-off for these calls is given here.

Columns and labels:
[1] = system: HCT-116; assay: Cytotoxicity against human HCT116 cells assessed as growth inhibition after 72 hrs by MTT assay; type: functional; conditions: HCT-116, 72 h
[2] = system: MCF7; assay: Cytotoxicity against human MCF7 cells assessed as reduction in cell viability after 72 hrs by MTT assay; type: functional; conditions: MCF7, 72 h
[3] = biological target: Tyrosyl-DNA phosphodiesterase 1 (Homo sapiens, UniProt Q9NUW8); assay: Inhibition of TDP1 (unknown origin) expressed in Escherichia coli BL21 (DE3) using 5'-FAM-AGGATCTAAAAGACTT-BHQ-3' as substrate preincubated for 30 mins followed by substrate addition by fluorescence assay
Sequence of Tyrosyl-DNA phosphodiesterase 1 (Q9NUW8 whole entry): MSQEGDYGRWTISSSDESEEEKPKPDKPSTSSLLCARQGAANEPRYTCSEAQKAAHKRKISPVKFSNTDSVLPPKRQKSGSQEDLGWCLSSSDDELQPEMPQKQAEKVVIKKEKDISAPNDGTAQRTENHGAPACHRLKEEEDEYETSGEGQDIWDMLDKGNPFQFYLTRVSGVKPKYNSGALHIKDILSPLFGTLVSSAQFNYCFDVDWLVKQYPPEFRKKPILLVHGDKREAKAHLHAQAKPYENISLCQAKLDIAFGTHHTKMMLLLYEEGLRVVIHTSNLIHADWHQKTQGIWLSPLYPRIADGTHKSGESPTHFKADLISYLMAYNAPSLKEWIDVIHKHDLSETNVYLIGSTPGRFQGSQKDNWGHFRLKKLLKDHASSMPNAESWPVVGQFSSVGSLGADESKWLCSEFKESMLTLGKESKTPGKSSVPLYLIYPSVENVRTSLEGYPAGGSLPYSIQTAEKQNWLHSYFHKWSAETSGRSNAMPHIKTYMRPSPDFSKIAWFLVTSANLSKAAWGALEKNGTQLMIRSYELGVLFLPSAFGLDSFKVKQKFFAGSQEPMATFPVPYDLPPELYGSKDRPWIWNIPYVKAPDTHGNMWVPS

[4] = system: A549; assay: Cytotoxicity against human A549 cells assessed as growth inhibition after 72 hrs by MTT assay; type: functional; conditions: A549, 72 h
[5] = biological target: T1, DNA topoisomerase I (Bos taurus) (UniProt F1MN93); assay: Inhibition of calf thymus Top1 assessed as reduction in supercoiled pBR322 DNA relaxation at 100 uM measured after 30 mins by agarose gel electrophoresis relative to camptothecin
T1 sequence (whole entry): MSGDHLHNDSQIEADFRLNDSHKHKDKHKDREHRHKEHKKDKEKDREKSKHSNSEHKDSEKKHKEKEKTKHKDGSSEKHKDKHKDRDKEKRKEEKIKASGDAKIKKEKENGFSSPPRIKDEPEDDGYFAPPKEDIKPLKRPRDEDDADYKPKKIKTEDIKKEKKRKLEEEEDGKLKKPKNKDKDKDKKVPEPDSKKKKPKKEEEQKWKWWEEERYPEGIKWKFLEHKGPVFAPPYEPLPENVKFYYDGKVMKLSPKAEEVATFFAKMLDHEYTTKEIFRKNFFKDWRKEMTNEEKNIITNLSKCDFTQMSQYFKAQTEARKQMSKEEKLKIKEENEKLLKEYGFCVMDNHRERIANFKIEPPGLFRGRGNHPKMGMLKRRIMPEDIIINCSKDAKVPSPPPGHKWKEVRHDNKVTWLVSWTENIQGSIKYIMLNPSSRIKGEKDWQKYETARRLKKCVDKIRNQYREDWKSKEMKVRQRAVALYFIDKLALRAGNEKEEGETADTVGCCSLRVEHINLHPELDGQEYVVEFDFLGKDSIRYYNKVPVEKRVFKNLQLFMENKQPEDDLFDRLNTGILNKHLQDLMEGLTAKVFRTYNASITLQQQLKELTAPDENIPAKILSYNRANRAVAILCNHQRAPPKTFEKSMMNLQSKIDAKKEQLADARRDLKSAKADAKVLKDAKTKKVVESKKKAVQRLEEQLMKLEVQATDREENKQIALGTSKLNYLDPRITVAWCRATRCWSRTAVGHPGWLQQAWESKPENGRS

[6] = system: MCF7; assay: Synergistic antiproliferative activity against human MCF7 cells assessed as combination index at 50 to 100 uM after 72 hrs in presence of TOP1 inhibitor topotecan by MTT assay; type: functional
[7] = system: MCF7; assay: Induction of DNA damage in human MCF7 cells assessed as increase in gammaH2AX foci formation at 0.5 uM measured after 12 hrs by immunofluorescence assay; type: functional, cell-based
[8] = biological target: T1, DNA topoisomerase I (Bos taurus); assay: Inhibition of calf thymus Top1-mediated supercoiled pBR322 DNA cleavage assessed as nicked DNA content at 25 uM measured after 30 mins by ethidium bromide staining agarose gel electrophoresis; design: scale not given: the % may be the effect or the level left
[9] = biological target: T1, DNA topoisomerase I (Bos taurus); assay: Inhibition of calf thymus Top1-mediated supercoiled pBR322 DNA cleavage assessed as nicked DNA content at 50 uM measured after 30 mins by ethidium bromide staining agarose gel electrophoresis; design: scale not given: the % may be the effect or the level left

SMILES	GI50 [1] [µM]	GI50 [2] [µM]	IC50 [3] [µM]	GI50 [4] [µM]	inhibition [5] [%]	CI [6]	Activity [7]	Activity [8] [%]	Activity [9] [%]
C[C@H]1[C@H](C)CC[C@]2(C(=O)O)CC[C@]3(C)C(=CC[C@@H]4[C@@]5(C)C[C@@H](O)[C@H](O)C(C)(C)[C@@H]5CC[C@]43C)[C@H]12 [COROSOLIC ACID]	> 100	62	> 100	> 100	< 29				
C=C1C(=O)O[C@H]2C3=CC[C@@H]4[C@](C)(CO)CCC[C@@]4(C)[C@@H]3CC[C@@H]12	42	40		51	30 to 59				
C[C@H]1[C@H](C)CC[C@]2(CO)CC[C@]3(C)C(=CC[C@@H]4[C@@]5(C)CC[C@H](O)C(C)(C)[C@@H]5CC[C@]43C)[C@H]12 [UVAOL]	37	93	> 100	45	30 to 59				
O=C(/C=C/c1ccc(O)cc1)c1ccc(O)cc1O [ISOLIQUIRITIGENIN]	39	> 100	55	87	30 to 59	<1			
CC1(C)CC[C@]2(C(=O)O)CC[C@]3(C)C(=CC[C@@H]4[C@@]5(C)C[C@@H](O)[C@@H](O)C(C)(C)[C@@H]5CC[C@]43C)[C@@H]2C1	51	> 100	> 100	> 100	30 to 59				
CC1(C)CC[C@]2(C(=O)O)CC[C@]3(C)C(=CC[C@@H]4[C@@]5(C)CC[C@H](O)C(C)(C)[C@@H]5CC[C@]43C)[C@@H]2C1 [OLEANOLIC_ACID]	> 100	> 100		> 100	0				
C[C@@H]1CC[C@]2(C(=O)O)CC[C@]3(C)C(=CC[C@@H]4[C@@]5(C)C[C@@H](O)OCC(C)(C)[C@@H]5CC[C@]43C)[C@@H]2[C@]1(C)O	23	> 100	> 100	> 100	< 29				
CC(=O)O[C@H]1CC[C@]2(C)[C@H]3CC=C4[C@@H]5[C@@H](C)[C@H](C)CC[C@]5(C(=O)O)CC[C@@]4(C)[C@]3(C)CC[C@H]2C1(C)C [O-ACETYLURSOLIC ACID]	21	6.5		48	> 90				
CC(=O)O[C@H]1CC[C@]2(C)[C@H]3CC=C4[C@H]5[C@](C(=O)O)(CC[C@@H](C)[C@@]5(C)O)CC[C@@]4(C)[C@]3(C)CC[C@H]2C1(C)C	> 100	> 100	> 100	> 100	0				
C=C1C(=O)O[C@H]2C3=CC[C@@H]4C(C)(C)[C@H](O)CC[C@@]4(C)[C@@H]3CC[C@@H]12	35	53	> 100	35	30 to 59				
C=C1C(=O)O[C@H]2C3=CC[C@@H]4C(C)(C)C(=O)CC[C@@]4(C)[C@@H]3CC[C@@H]12	31	15	> 100	51	60 to 89				
CC1(C)CC[C@]2(C(=O)O)CC[C@]3(C)C(=CC[C@@H]4[C@@]5(C)C[C@H](O)[C@H](O)[C@@](C)(COC(C)(C)O)[C@@H]5CC[C@]43C)[C@@H]2C1	55	11	> 100	37	60 to 89				
CC[C@@]1(O)C(=O)OCc2c1cc1n(c2=O)Cc2cc3ccccc3nc2-1							Active	16	18
